Results: patent US20260042755A1, “GPR6 INVERSE AGONISTS” (MapLight Therapeutics, Inc., priority 2022, published 2026)

Experiments:
GPR6 = target: T1, GPR6 (Homo sapiens, UniProt P46095); assay: GPR6 antagonist functional cAMP assay (LANCE Ultra cAMP TR-FRET, CHO cells stably expressing GPR6); format: cell-based
T1 construct: expressed in transfected cells; host or cells: CHO cells
Summary of the method: (§1)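 cAMP quantified by TR-FRET immunoassay after 45 min compound treatment at 37° C of CHO cells stably expressing GPR3 or GPR6, in PDE-inhibitor (Ro 20-1724, 150 μM) buffer with 0.1% BSA. Data scaled between DMSO (0%) and reference compounds (100%); antagonist IC50 by 4-parameter logistic fit.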

GPR3 = target: T2, GPR3 (Homo sapiens, UniProt P46089); assay: GPR3 antagonist functional cAMP assay (LANCE Ultra cAMP TR-FRET, CHO cells stably expressing GPR3); format: cell-based
T2 construct: expressed in transfected cells; host or cells: CHO cells
T2 sequence (P46089 whole entry, species assumed): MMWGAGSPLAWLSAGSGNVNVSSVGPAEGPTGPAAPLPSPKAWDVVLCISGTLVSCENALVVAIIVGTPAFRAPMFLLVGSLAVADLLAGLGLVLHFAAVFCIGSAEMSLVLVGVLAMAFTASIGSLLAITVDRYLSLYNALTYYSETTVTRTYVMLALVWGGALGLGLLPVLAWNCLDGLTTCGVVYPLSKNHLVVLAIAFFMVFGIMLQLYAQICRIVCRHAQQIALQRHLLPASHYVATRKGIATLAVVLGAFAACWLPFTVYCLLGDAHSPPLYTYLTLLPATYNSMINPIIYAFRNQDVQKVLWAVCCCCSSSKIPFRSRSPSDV
Summary of the method: as §1

[1] = CHO cells stably expressing GPR6, cAMP assay (Example 24)
[2] = CHO cells stably expressing GPR3, cAMP assay (Example 24)
[3] = CHO cells stably expressing GPR6, cAMP assay
[4] = CHO cells stably expressing GPR3, cAMP assay

T1 sequence (P46095 whole entry): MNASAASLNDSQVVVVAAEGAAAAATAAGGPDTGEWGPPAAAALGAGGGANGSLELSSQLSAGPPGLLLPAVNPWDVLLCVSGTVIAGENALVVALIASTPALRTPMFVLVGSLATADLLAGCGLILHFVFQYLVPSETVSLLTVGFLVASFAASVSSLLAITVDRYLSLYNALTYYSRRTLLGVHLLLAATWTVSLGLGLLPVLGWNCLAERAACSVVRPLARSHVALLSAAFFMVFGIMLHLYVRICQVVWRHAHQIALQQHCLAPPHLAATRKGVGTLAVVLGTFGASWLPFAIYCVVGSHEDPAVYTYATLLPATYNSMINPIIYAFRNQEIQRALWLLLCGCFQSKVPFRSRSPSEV

Compound | IC50 (GPR6; procedure of Example 24) [nM] | IC50 (GPR3; procedure of Example 24) [nM] | IC50 (GPR6; [1]) [nM] | IC50 (GPR3; [2]) [nM] | also measured
CC(=O)N1CCc2nc(N3CCN(Cc4ccccc4)CC3)c(-c3cnn(C)c3)nc2C1 [Compound 280, 1-[2-(4-benzylpiperazin-1-yl)-3-(1-methyl-1H-pyrazol-4-yl)-5H,6H,7H,8H-pyrido[3,4-b]pyrazin-6-yl]ethan-1-one] | 1000 to 30000 | 1000 to 30000 |  |  | 
Nc1cc2nc(N3CCC(Oc4ccc(F)cc4F)CC3)c(-c3cnn(C4CC4)c3)nc2cn1 [Compound 462, 3-(1-cyclopropyl-1H-pyrazol-4-yl)-2-[4-(2,4-difluorophenoxy)piperidin-1-yl]pyrido[3,4-b]pyrazin-7-amine] |  |  | 100 to 1000 | 1000 to 30000 | 
CC(C)(O)C(O)c1cc2nc(N3CCN(Cc4ccc(F)cc4F)CC3)c(-c3cnn(C(F)F)c3)nc2cn1 (stereo not drawn) [Compound 264, 1-{3-[1-(difluoromethyl)-1H-pyrazol-4-yl]-2-{4-[(2,4-difluorophenyl)methyl]piperazin-1-yl}pyrido[3,4-b]pyrazin-7-yl}-2-methylpropane-1,2-diol] |  |  | < 100 | 1000 to 30000 | 
CNc1nccc(-c2nc3c(nc2N2CCC(Oc4ccc(F)cc4F)CC2)CCN(C(C)=O)C3)n1 [Compound 473, 1-{2-[4-(2,4-difluorophenoxy)piperidin-1-yl]-3-[2-(methylamino)pyrimidin-4-yl]-5H,6H,7H,8H-pyrido[3,4-b]pyrazin-6-yl}ethan-1-one] |  |  | 100 to 1000 | 1000 to 30000 | 
Cn1cc(-c2nc3c(nc2N2CCC(Oc4ccc(F)cc4F)CC2)CC2COC(=O)N2C3)cn1 (stereo not drawn) [Compound 486, 2-(4-(2,4-difluorophenoxy)piperidin-1-yl)-3-(1-methyl-1H-pyrazol-4-yl)-9a,10-dihydro-5H-oxazolo[3′,4′:1,6]pyrido[3,4-b]pyrazin-7(9H)-one] |  |  | 100 to 1000 | 1000 to 30000 | 
COc1ccc(C(=O)N2CCN(c3nc4c(nc3-c3cnn(C)c3)CN(C(C)=O)CC4)CC2)c(OC)c1 [Compound 287, 1-{2-[4-(2,4-dimethoxybenzoyl)piperazin-1-yl]-3-(1-methyl-1H-pyrazol-4-yl)-5H,6H,7H,8H-pyrido[3,4-b]pyrazin-6-yl}ethan-1-one] | ≥ 30000 | ≥ 30000 |  |  | 
COc1cncc(-c2nc3cnc(Cl)cc3nc2N2CCN(Cc3ccc(F)cc3F)CC2)n1 [Compound 159, 2-(7-chloro-2-{4-[(2,4-difluorophenyl)methyl]piperazin-1-yl}pyrido[3,4-b]pyrazin-3-yl)-6-methoxypyrazine] |  |  | 1000 to 30000 | 1000 to 30000 | 
CCn1cc(-c2nc3cc(C(C)(O)C(C)(C)O)ncc3nc2N2CCC(Oc3ccc(F)cc3F)CC2)cn1 (single isomer, unassigned) [Compound 741] | 100 to 1000 | 1000 to 30000 |  |  | 
CC(=O)N1CCc2nc(N3CCC(Oc4ccc(F)cc4F)CC3)c(C3CCN(S(C)(=O)=O)C3)nc2C1 (stereo not drawn) [Compound 543, 1-{2-[4-(2,4-difluorophenoxy)-1-piperidyl]-3-(1-mesyl-3-pyrrolidinyl)-5,6,7,8-tetrahydro-1,4,6-triaza-6-naphthyl}-1-ethanone] |  |  |  |  | IC50 (GPR6; [3]): 1000 to 30000 nM; IC50 (GPR3; [4]): 1000 to 30000 nM
CC(=O)N1CCc2nc(N3CCN(Cc4cccn(C)c4=O)CC3)c(-c3cnn(C)c3)nc2C1 [Compound 534, 3-({4-[6-acetyl-3-(1-methyl-4-pyrazolyl)-5,6,7,8-tetrahydro-1,4,6-triaza-2-naphthyl]-1-piperazinyl}methyl)-1-methyl-2(1H)-pyridinone] |  |  |  |  | IC50 (GPR6; [3]): ≥ 30000 nM; IC50 (GPR3; [4]): ≥ 30000 nM
CC(=O)N1CCc2nc(N3CCC(C(=O)N(C)c4ccc(F)cc4)C3)c(-c3cnn(C)c3)nc2C1 (stereo not drawn) [Compound 385, 1-[6-acetyl-3-(1-methyl-1H-pyrazol-4-yl)-5H,6H,7H,8H-pyrido[3,4-b]pyrazin-2-yl]-N-(4-fluorophenyl)-N-methylpyrrolidine-3-carboxamide] |  |  | ≥ 30000 | 1000 to 30000 | 
CC(=O)N1CCc2nc(N3CCC(Oc4ccc(F)cc4)C3)c(-c3cnn(C)c3)nc2C1 (stereo not drawn) [Compound 341, 1-{2-[3-(4-fluorophenoxy)pyrrolidin-1-yl]-3-(1-methyl-1H-pyrazol-4-yl)-5H,6H,7H,8H-pyrido[3,4-b]pyrazin-6-yl}ethan-1-one] | 1000 to 30000 | 1000 to 30000 |  |  | 
